According to paper PMC10536063 (ACS Omega, 2023):

Experiments:
[1] = test system: MCF-10A (normal breast) cells; assay: MTT cytotoxicity bioassay against normal MCF-10A cells; format: cell-based; conditions: for IC50: Homo sapiens, MCF-10A, 48 h, read-out: IC50 ± SD, MCF-10A; for cytotoxicity versus normal MCF-10A cells (in words): MTT
[2] = test system: MCF-7 (breast cancer cells); assay: MTT cytotoxicity bioassay against MCF-7; format: cell-based, human; conditions: read-out: IC50 ± SD, MCF-7, 48 h, mean ± SD, n = 3
EGFR kinase = EGFR kinase (Homo sapiens, UniProt P00533); assay: EGFR-TK kinase inhibitory assay; format: biochemical
CDK-2 kinase = CDK-2 kinase (Homo sapiens, UniProt P24941); assay: CDK-2 luminescence kinase inhibitory assay; format: biochemical

EGFR kinase, sequence (P00533 25-1210): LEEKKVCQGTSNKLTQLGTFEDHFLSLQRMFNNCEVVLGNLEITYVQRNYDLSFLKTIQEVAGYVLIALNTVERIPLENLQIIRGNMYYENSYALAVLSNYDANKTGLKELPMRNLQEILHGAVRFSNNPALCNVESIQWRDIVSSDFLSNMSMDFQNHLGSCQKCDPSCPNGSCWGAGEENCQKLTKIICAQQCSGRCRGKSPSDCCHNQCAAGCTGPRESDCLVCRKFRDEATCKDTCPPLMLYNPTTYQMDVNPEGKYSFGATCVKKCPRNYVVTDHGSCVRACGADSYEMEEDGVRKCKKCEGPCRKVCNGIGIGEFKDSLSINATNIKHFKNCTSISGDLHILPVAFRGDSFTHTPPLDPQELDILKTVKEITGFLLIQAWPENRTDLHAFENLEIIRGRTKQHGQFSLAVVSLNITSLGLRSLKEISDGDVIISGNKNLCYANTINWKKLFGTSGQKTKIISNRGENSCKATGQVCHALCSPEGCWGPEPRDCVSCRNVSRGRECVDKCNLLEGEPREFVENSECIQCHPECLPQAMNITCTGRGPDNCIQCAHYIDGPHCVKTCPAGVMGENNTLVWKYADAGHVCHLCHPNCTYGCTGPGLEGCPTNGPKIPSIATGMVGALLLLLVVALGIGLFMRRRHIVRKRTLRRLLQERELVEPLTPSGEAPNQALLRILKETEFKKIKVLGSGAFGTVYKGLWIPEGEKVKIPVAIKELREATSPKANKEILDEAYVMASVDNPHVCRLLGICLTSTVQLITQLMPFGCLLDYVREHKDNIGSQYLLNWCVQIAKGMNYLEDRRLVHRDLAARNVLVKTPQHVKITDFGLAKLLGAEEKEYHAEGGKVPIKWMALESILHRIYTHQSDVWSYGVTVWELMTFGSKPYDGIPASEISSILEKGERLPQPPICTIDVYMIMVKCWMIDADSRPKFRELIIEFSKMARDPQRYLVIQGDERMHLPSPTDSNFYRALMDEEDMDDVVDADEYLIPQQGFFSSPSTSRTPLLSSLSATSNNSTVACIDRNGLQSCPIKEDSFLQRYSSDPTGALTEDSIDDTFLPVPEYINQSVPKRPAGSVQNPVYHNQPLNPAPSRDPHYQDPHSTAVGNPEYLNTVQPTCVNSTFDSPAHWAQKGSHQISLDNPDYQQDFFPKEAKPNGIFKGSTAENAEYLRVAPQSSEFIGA

IC50 (EGFR kinase) [µM] | IC50 (CDK-2 kinase) [µM] | Structure (SMILES) | IC50 [1] [µM] | IC50 [2] [µM] | cytotoxicity versus normal MCF-10A cells (in words) [1]
 |  | O=C(c1ccc2ccccc2c1)c1cn(-c2ccccc2)nc1C(=O)CBr [Compound 2, 3-Bromoacetyl-4-(2-naphthoyl)-1-phenyl-1H-pyrazole] | 37.5 ± 1.9 |  | 
 |  | O=C(c1ccc2ccccc2c1)c1cn(-c2ccccc2)nc1C1=Nn2cnnc2SC1 [Compound 4a, 6-(4-(2-Naphthoyl)-1-phenyl-1H-pyrazol-3-yl)-7H-[1,2,4]triazolo[3,4-b][1,3,4]thiadiazine] | ≥ 50 |  | 
0.0717 ± 0.0021 | 0.114 ± 0.0029 | O=C(c1ccc2ccccc2c1)c1cn(-c2ccccc2)nc1C1=Nn2c(nnc2-c2ccccc2)SC1 [Compound 4b, 3-Phenyl-6-(4-(2-naphthoyl)-1-phenyl-1H-pyrazol-3-yl)-7H-[1,2,4]triazolo[3,4-b][1,3,4]-thiadiazine] | ≥ 50 | 3.16 ± 0.29 | safe
0.0896 ± 0.0024 | 0.165 ± 0.00314 | O=C(c1ccc2ccccc2c1)c1cn(-c2ccccc2)nc1C1=Nn2c(S)nnc2SC1 [Compound 4c, 6-(4-(2-Naphthoyl)-1-phenyl-1H-pyrazol-3-yl)-7H-[1,2,4]triazolo[3,4-b][1,3,4]thiadiazin-3-thiol] | 46.7 ± 1.7 |  | safe
 |  | O=C(c1ccc2ccccc2c1)c1cn(-c2ccccc2)nc1C1=Nn2c(SCCSc3nnc4n3N=C(c3nn(-c5ccccc5)cc3C(=O)c3ccc5ccccc5c3)CS4)nnc2SC1 [Compound 8a, 1,2-Bis((6-(4-(2-naphthoyl)-1-phenyl-1H-pyrazol-3-yl))-7H-[1,2,4]triazolo[3,4-b][1,3,4]-thiadiazin-3-ylthio)ethane] | 38.9 ± 0.89 |  | 
 |  | O=C(c1ccc2ccccc2c1)c1cn(-c2ccccc2)nc1C1=Nn2c(SCCCSc3nnc4n3N=C(c3nn(-c5ccccc5)cc3C(=O)c3ccc5ccccc5c3)CS4)nnc2SC1 [Compound 8b, 1,3-Bis((6-(4-(2-naphthoyl)-1-phenyl-1H-pyrazol-3-yl))-7H-[1,2,4]triazolo[3,4-b][1,3,4]-thiadiazin-3-ylthio)propane] | 29.6 ± 0.8 |  | 
 |  | O=C(c1ccc2ccccc2c1)c1cn(-c2ccccc2)nc1C1=Nn2c(nnc2SCc2ccccc2CSc2nnc3n2N=C(c2nn(-c4ccccc4)cc2C(=O)c2ccc4ccccc4c2)CS3)SC1 [Compound 10, 1,2-Bis((6-(4-(2-naphthoyl)-1-phenyl-1H-pyrazol-3-yl))-7H-[1,2,4]triazolo[3,4-b][1,3,4]-thiadiazin-3-ylthiomethyl)benzene] | 31.2 ± 0.9 |  | 
 |  | C#Cc1cccc(Nc2ncnc3cc(OCCOC)c(OCCOC)cc23)c1 [Erlotinib, reference compound] | ≥ 50 |  | 
